Legend:
[1] = test system: vector-transfected control cells; assay: Remdesivir accumulation into vector-transfected control HEK cells; format: in vitro ADME, human; conditions: 5 µM remdesivir, 10 min
Source text: (§1) Generation, cultivation and characterization of human embryonic kidney (HEK) cells stably expressing OATP1B1 refseq (=OATP1B1*1a), OATP1B1*1b, OATP1B1*5 and OATP1B1*15 [18], OATP1B3 [19], OATP2B1 [13] and OCT1 [20] have been described previously. OATP1B1 cells were cultivated in minimal essential medium (Life Technologies, Paisley, UK) and OATP1B3, OATP2B1 and OCT1 cells were cultivated in Dulbecco’s modified Eagle medium (Sigma, Darmstadt, Germany). Cultivation media were supplemented with 10% fetal calf serum, 100 U/mL penicillin and 100 µg/mL streptomycin. Cells were grown at 37 °C and 5% CO2. Functionality of the cells was confirmed by measuring uptake of prototypic substrates (see Section 2.3 and supplementary material).
(§2) Uptake assays were conducted at 37 °C according to previously described methods. For this, cells were seeded in 24-well plates (320,000 cells/well) and cultured for 2 days. Cells were then incubated for a further 24 h in culture medium with 5 mM butyrate (OATP1B3, OATP2B1, OCT1) or 10 mM butyrate (OATP1B1) to increase protein levels of recombinant transporters. […]
(§3) Remdesivir was determined by UHPLC-MS-MS analysis on an Agilent 1290 infinity UHPLC system coupled to an Agilent 6495B triple quadrupole mass spectrometer (Agilent, Waldbronn, Germany) similar to a recently published method. […]

[2] = target: T1, OATP2B1 (Homo sapiens, UniProt O94956); assay: Remdesivir uptake into HEK cells stably expressing OATP2B1 vs vector control; format: in vitro ADME; conditions: 5 µM remdesivir, 10 min, transporter-expressing vs control HEK cells
T1 construct: expressed in transfected cells
T1 sequence (O94956 1-709): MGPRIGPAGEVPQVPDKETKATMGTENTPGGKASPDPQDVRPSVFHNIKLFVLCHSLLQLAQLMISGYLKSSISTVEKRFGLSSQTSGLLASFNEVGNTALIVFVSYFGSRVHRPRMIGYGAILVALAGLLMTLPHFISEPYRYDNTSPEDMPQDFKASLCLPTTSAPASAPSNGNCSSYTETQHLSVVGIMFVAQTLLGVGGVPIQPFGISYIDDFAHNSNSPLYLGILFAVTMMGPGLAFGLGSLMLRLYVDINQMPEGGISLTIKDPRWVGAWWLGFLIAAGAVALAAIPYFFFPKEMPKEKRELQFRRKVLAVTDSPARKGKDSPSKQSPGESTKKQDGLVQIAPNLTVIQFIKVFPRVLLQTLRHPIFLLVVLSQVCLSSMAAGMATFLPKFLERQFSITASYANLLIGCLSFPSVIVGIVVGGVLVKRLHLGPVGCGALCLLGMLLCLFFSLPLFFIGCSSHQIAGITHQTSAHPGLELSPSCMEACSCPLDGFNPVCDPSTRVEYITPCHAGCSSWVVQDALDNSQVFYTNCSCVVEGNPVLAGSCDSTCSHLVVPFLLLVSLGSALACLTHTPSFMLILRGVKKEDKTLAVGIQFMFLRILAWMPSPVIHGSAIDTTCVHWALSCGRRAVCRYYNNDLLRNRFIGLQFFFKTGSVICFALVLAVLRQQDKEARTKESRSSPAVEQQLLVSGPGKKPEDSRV
Source text: as §1, §2, §3

## CCC(CC)COC(=O)[C@H](C)N[P@](=O)(OC[C@H]1O[C@@](C#N)(c2ccc3c(N)ncnn23)[C@H](O)[C@@H]1O)Oc1ccccc1 [Remdesivir]
[1]
  Accumulation into control cells: high remdesivir accumulation
[2]
  Remdesivir uptake ratio: 1.4
